Data reported in patent US5081126A, “Quinolyl- and isoquinolyl-methoxyphenyl-dithioacetyl derivatives useful as antiinflammatory agents” (Fujisawa Pharmaceutical Co., Ltd., priority 1987, dated 1992).
Counter-ions that a name gives are not always drawn.

Test system: SRS-A (Slow Reacting Substance of Anaphylaxis) synthesis in rat polymorpholeukocyte (PMN)
Experiment: Inhibiting activity of SRS-A (Slow Reacting Substance of Anaphylaxis) synthesis in rat polymorpholeukocyte (PMN) using the calcium ionophore; i-LTC4 by radioimmunoassay
Assay type: cell-based
Conditions: 0.25 h, 10 μM A23187, 15 min at 37° C., i-LTC4 readout
Protocol: Test : Inhibiting activity of SRS-A (Slow Reacting Substance of Anaphylaxis) synthesis in rat polymorpholeukocyte (PMN) of using the calcium ionophore
Preparation of PMN from rat
Male Spraque-Dawley rats weighing 250-300 g were anesthetized with ether and each was injected intraperitoneally with 20 ml of 0.1% glycogen (from Oyster). After 20 hours the rats were sacrificed and PMN were recovered in rinse of the peritoneal cavity with 10 ml Dulbeccos PBS (components in G/L : CaCl 0.1, KH2 PO4 0.2, MgCl2.6H2 O 0.1, NaCl 8.0, Na2 HPO4.7H2 O 2.16; pH 7.4). These rinses were filtered through nylon wool filter and centrifuged for 5 min at 1000 xg. The pellet was suspended in Dulbeccos PBS and centrifuged for 5 min at 1000 xg. The pellet was resuspended in Dulbeccos PBS and adjusted the cell concentration to 10^7 cells/ml with Dulbeccos PBS.
Samples were dissolved in ethanol and dispersed in Dulbeccos PBS to give a concentration of 10^-8 to 10^-3 M. Antibiotic A23187; calcium ionophor (Dehring Diagnostics; (hereinafter referred to A23187) in DMSO (10mM) was diluted with Dulbeccos PBS tc give the concentration of 1 mM. Aliquots of the cell suspension (1×10^7 cells/ml, 0.98 ml) were equilibrated for 30 min at 37° C. Solution of sample(10 ul) was added and incubated for 15 min at 37° C. before the addition of 10 μl of A23187 solution. Thus the final incubation volume of 1 ml contained approximately 1×10^7 cells, 10^-10 to […] M samples and 10 μM A23187. Incubation with A23187 were continued for 15 min at 37° C. The reactions were terminated by setting the assay tubes in ice bath to chill as rapidly as possible to 4° C. The test tubes were centrifuged at 1500 xg for 5 min at 4° C. and decanted the supernatants into the tubes and kept cold prior to assaying.
Determination of immunoreactive LTC4 (i-LTC4)
The concentration of i-LTC4 in the cell-free supernatants from the incubations were determined by specific radioimmunoassay. The mean values of i-LTC4 (these incubations were carried out in duplicate) of each sample were calculated and the effect of samples on the synthesis of the leukotrienes was presented as a percentage of the value in the absence of samples.

Row | Compound | IC50 [nM]
1 | CCCSC(SCCC)c1cccc(OCc2ccccn2)c1 [Example 2, 2-[[[3-Bis(propylthio)methyl]phenoxy]methyl]pyridine hydrochloride] | 520
2 | CCSC(SCC)c1cccc(OCc2ccc3ccccc3n2)c1 [Example 6, 2-[[[3-Bis(ethylthio)methyl]phenoxy]methyl]quinoline hydrochloride] | 130
3 | CCCSC(SCCC)c1cccc(OCc2ccc3ccccc3n2)c1 [Example 3, 2-[[[3-bis(propylthio)methyl]phenoxy]methyl]quinoline hydrochloride] | 39
4 | CCCCSC(SCCCC)c1cccc(OCc2ccc3ccccc3n2)c1 [Example 7, 2-[[[3-Bis(butylthio)methyl]phenoxy]methyl]quinoline hydrochloride] | 160
5 | CCCSC(SCCC)c1ccc(OCc2ccc3ccccc3n2)cc1 [Example 5, 2-[[[4-Bis(propylthio)methyl]phenoxy]methyl]quinoline hydrochloride] | 110
6 | CCCSC(SCCC)c1cccc(OCc2nc3ccccc3s2)c1 [Example 1, 2-[[[3-bis(propylthio)methyl]phenoxy]methyl]benzothiazole] | 300

Now from value to compound:

Row | IC50 [nM] | Compound
7 | 100 | CC(C)SC(SC(C)C)c1cccc(OCc2ccc3ccccc3n2)c1 [Example 9, 2-[[[3-Bis(isopropylthio)methyl]phenoxy]methyl]quinoline hydrochloride]
8 | 1100 | c1ccc(SC(Sc2ccccc2)c2cccc(OCc3ccc4ccccc4n3)c2)cc1 [Example 10, 2-[[[3-Bis(phenylthio)methyl]phenoxy]methyl]quinoline hydrochloride]
9 | 330 | CCCCCSC(SCCCCC)c1cccc(OCc2ccc3ccccc3n2)c1 [Example 8, 2-[[[3-Bis(pentylthio)methyl]phenoxy]methyl]quinoline hydrochloride]
10 | 110 | CC(C)SC(SC(C)C)c1cccc(OCc2nc3ccccc3s2)c1 [Example 16, 2-[[[3-Bis(isopropylthio)methyl]phenoxy]methyl]benzothiazole]
11 | 1400 | c1ccc(CSC(SCc2ccccc2)c2cccc(OCc3ccc4ccccc4n3)c2)cc1 [Example 11, 2-[[[3-Bis(benzylthio)methyl]phenoxy]methyl]quinoline]
12 | 850 | CCCSC(SCCC)c1cccc(OCc2ncc3ccccc3n2)c1 [Example 22, 2-[[[3-Bis(propylthio)methyl]phenoxy]methyl]quinazoline hydrochloride]
